Test results as given in PMC9366509 (Inorganic chemistry, 2022).
Like-named read-outs stand apart in the source and are kept apart here.

Key:
[1] = Chelator protonation constants by pH potentiometry; type: physicochemical; conditions: I = 0.1 M KCl, 25 °C
[2] = for pPb (pM), -log [Pb]free: [Pb]tot = 10^-6 M, [L]tot = 10^-5 M; for pPb (pM), -log [Pb]free / log K'Pb (conditional stability constant): pH 7.4, 25 °C, I = 0.1 M
EDTA challenge = type: physicochemical; conditions: 20-fold excess EDTA, after 72 hours; 203Pb complex
[3] = Non-radioactive Pb2+ challenge; type: physicochemical; conditions: 20-fold excess non-radioactive Pb, after 72 hours; 203Pb complex
[4] = pH 7.4
[5] = cited from earlier work
[6] = Pb2+ complex, cited from earlier work
[7] = Pb2+ complex, I = 0.1 M KCl, 25 °C

| Structure (SMILES) | log K1 (protonation constant) [1] | log K2 (protonation constant) [1] | log K3 (protonation constant) [1] | log K4 (protonation constant) [1] | log KPbHL [2, 7] | log KPbL (thermodynamic stability constant, log KML) [2, 7] | pPb (pM), -log [Pb]free [2] | log K'Pb (conditional stability constant) [2] | other results |
| --- | --- | --- | --- | --- | --- | --- | --- | --- | --- |
| c1ccc(CN2CCOCCN(Cc3ccccn3)CCN(Cc3ccccn3)CCOCCN(Cc3ccccn3)CC2)nc1 [Crown-4Py, 4,7,13,16-tetrakis(pyridin-2-ylmethyl)-1,10-dioxa-4,7,13,16-tetraazacyclooctadecane] | 7.91(4) | 7.33(4) | 4.64(1) | 4.00(6) | 5.22(1) | 13.29(5) | 13.40 | 12.45 | log KPbH2L [2, 7]: 3.50(8) |
| c1ccc(CN2CCN(Cc3ccccn3)CCN(Cc3ccccn3)CCN(Cc3ccccn3)CC2)nc1 [Cyclen-4Py, 1,4,7,10-tetrakis(pyridin-2-ylmethyl)-1,4,7,10-tetraazacyclododecane] | 10.05(4) | 7.53(2) | 3.54(7) | 2.23(6) | 2.06(9) | 19.95(3) | 17.88 | 16.93 | complex remained intact, EDTA challenge (EDTA challenge): 98.1 ± 0.5%; complex remained intact, non-radioactive Pb2+ challenge [3]: 98.0 ± 0.4% |
| O=C(O)CN1CCN(CC(=O)O)CCN(CC(=O)O)CCN(CC(=O)O)CC1 [DOTA, 1,4,7,10-tetraazacyclododecane-1,4,7,10-tetraacetic acid] |  |  |  |  |  |  |  |  | log K'Pb (conditional stability constant) [4]: 15.64; log K1 (protonation constant) ([5]; I = 0.1 M Me4NNO3): 12.09; log K2 (protonation constant) ([5]; I = 0.1 M Me4NNO3): 9.76; log K3 (protonation constant) ([5]; I = 0.1 M Me4NNO3): 4.559; log K4 (protonation constant) ([5]; I = 0.1 M Me4NNO3): 4.09; log KPbL (thermodynamic stability constant, log KML) ([6]; I = 0.1 M NaCl): 25.3(1)[39] |
| NC(=O)CN1CCN(CC(N)=O)CCN(CC(N)=O)CCN(CC(N)=O)CC1 [DOTAM, 1,4,7,10-tetrakis(carbamoylmethyl)-1,4,7,10-tetraazacyclododecane] |  |  |  |  |  |  |  |  | log K1 (protonation constant) ([5]; I = 0.1 M NaNO3): 7.70(1); log K2 (protonation constant) ([5]; I = 0.1 M NaNO3): 6.21(1); log KPbL (thermodynamic stability constant, log KML) ([6]; I = 0.1 M NaNO3): >19 |
| c1ccc(CN2CCOCCOCCN(Cc3ccccn3)CCOCCOCC2)nc1 [NOON-2Py, 7,16-bis(pyridin-2-ylmethyl)-1,4,10,13-tetraoxa-7,16-diazacyclooctadecane] |  |  |  |  |  |  | 12.29 | 11.33 | log K1 (protonation constant) ([5]; I = 0.1 M KCl): 7.44; log K2 (protonation constant) ([5]; I = 0.1 M KCl): 6.26; log K3 (protonation constant) ([5]; I = 0.1 M KCl): 1.38; log KPbL (thermodynamic stability constant, log KML) ([6]; I = 0.1 M KCl): 11.67 |
